According to publication PMC8486872, “A rational blueprint for the design of chemically-controlled protein switches” (Nature Communications, 2021):
“Also recorded” adds a separate entry of the source.

Target: Bcl2:LD3 complex (CDH-2) (Homo sapiens, UniProt P10415)
Experiment: SEC-MALS drug-induced monomerization of Bcl2:LD3
Settings: 50 µM proteins, 100 µM drug
Description: LD6 was further characterized by Size Exclusion Chromatography coupled to Light Scattering (SEC-MALS) for solution behavior, and to study dimerization and drug-induced monomerization properties. LD6 was injected at 50–100 µM into a Superdex^TM 75 300/10 GL column (GE Healthcare) using a high-performance liquid chromatography system (Ultimate 3000, Thermo Scientific) at a flow rate of 0.5 ml/min. The UV spectrum at 280 nm was collected along with static light scatter signal by a MALS device (miniDAWN TREOS, Wyatt). […] Then the mixtures were treated with either 100 µM (two-fold excess) of the corresponding drugs or the same volume of DMSO to detect complex formation and forced dissociation in SEC-MALS. The light scatter signal of the sample was collected from three different angles and the results were analyzed using the ASTRA software (version 6.1, Wyatt).
Supplementary Figure 1: Biophysical characterization of CDH-2.
Drug concentrations from 0.01 nM to
10 µM were pre-incubated with 4 µM LD3, then the mixtures were injected over a Bcl2-immobilized chip.
Response units reflect the remaining interaction of Bcl2 and LD3 in the presence of serial diluted Drug-
2. d) SEC-MALS analysis of CDH-2 showing Bcl2:LD3 complex with DMSO (black trace) and Bcl2:LD3
and LD3 (16 kDa) eluted around 22 minutes.
(1 picture or pasted object on this page, not shown here)

Chain of Bcl2:LD3 complex (CDH-2) (P10415 with tags, fused parts or gaps): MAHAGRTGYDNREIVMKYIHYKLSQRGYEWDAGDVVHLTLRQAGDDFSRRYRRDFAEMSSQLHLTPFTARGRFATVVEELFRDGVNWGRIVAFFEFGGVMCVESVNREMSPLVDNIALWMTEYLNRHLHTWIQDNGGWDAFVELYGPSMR

CC1(C)CCC(CN2CCN(c3ccc(C(=O)NS(=O)(=O)c4ccc(NCC5CCOCC5)c([N+](=O)[O-])c4)c(Oc4cnc5[nH]ccc5c4)c3)CC2)=C(c2ccc(Cl)cc2)C1 [Drug-2, Venetoclax]
disruption of Bcl2:LD3 complex by SEC-MALS: effectively disrupts; also recorded: did not result in complex formation
